Columns and labels:
[1] = Solubility in DMSO and DMSO/H2O solutions; type: physicochemical
Text: Therefore, these three platinum derivatives were consequently excluded from biological analyses.

[2] = system: A2780 (cisplatin-sensitive ovarian cancer cells); assay: Antiproliferative activity (CellTiter-Glo cytotoxicity assay) on A2780; type: cell-based, human; conditions: 96 h of incubation, stock solutions in DMSO (cisplatin in H2O/NaCl)
Description: (§1) With the aim of exploring the potential anticancer effects of platinum(0)-η^2-1,2-(E)ditosylethene complexes, we exposed a set of three distinct human tumor cell lines (ovarian cancer A2780 and its cisplatin-resistant clone A2780cis, and triple-negative breast cancer MDA-MB-231) to the synthesized compounds and cisplatin (positive control) for a duration of 96 h.
(§2) Two types of ovarian cancer cell lines (A2780 and A2780cis), one breast cancer cell line (MDA-MB-231) and a normal cell line (MRC-5) were cultured following the supplier’s guidelines (Sigma-Aldrich, St. Louis, MO, USA) and maintained at 37 °C in a humidified atmosphere containing 5% CO2. In 96-well plates, 1∙10^3 cancer cells and 8∙10^3 MRC-5 cells were seeded and treated after 24 h with six different concentrations of Pt(0) complexes (0.001, 0.01, 0.1, 1, 10, 100 µM). Stock solutions (10 mM) of all platinum complexes were prepared using DMSO as a solvent. After 96 h of treatment, cell viability was assessed using a CellTiter-Glo assay (Promega, Madison, WI, USA) with Tecan M1000 or SynergyH1 microplate readers (Mennedorf, Switzerland). IC50 values were determined from logistical dose–response curves using GraphPad Prism 8 software. Triplicate measurements were taken to calculate averages, and standard deviations were represented by error bars.

[3] = system: MDA-MB-231 (triple-negative breast cancer cells); assay: Antiproliferative activity (CellTiter-Glo cytotoxicity assay) on MDA-MB-231; type: cell-based, human; conditions: 96 h of incubation; MDA-MB-231 cells; stock solutions in DMSO (cisplatin in H2O/NaCl)
Description: as §1, §2

[4] = system: A2780cis (cisplatin-resistant ovarian cancer cells); assay: Antiproliferative activity (CellTiter-Glo cytotoxicity assay) on A2780cis; type: cell-based, human; conditions: 96 h of incubation, stock solutions in DMSO (cisplatin in H2O/NaCl)
Description: as §1, §2

[5] = system: MRC-5 (normal lung fibroblasts); assay: Antiproliferative activity (CellTiter-Glo cytotoxicity assay) on MRC-5 normal cells; type: cell-based, human; conditions: 96 h of incubation, stock solutions in DMSO (cisplatin in H2O/NaCl)
Description: as §1, §2

Row | Molecule | Solubility [1] | IC50 [2] [µM] | IC50 [3] [µM] | IC50 [4] [µM] | IC50 [5] [µM]
1 | [(PPh3)(CyIC)Pt(η^2-(E)-1,2-ditosylethene)] [Compound 4g] | low solubility |  |  |  | 
2 | [(PPh3)2Pt(η^2-(E)-1,2-ditosylethene)] [Compound 2a] |  | 5.5 ± 0.6 | 2.6 ± 0.4 | > 100 | > 100
3 | [(PPh3)(TIC)Pt(η^2-(E)-1,2-ditosylethene)] [Compound 4e] | low solubility |  |  |  | 
4 | [(TosMIC)2Pt(η^2-(E)-1,2-ditosylethene)] [Compound 3b] |  | 5.4 ± 0.7 | 5.52 ± 0.03 | 11 ± 6 | 22 ± 6
5 | [(P(p-F-Ph)3)(DIC)Pt(η^2-(E)-1,2-ditosylethene)] [Compound 4b] |  | 85 ± 23 | 30 ± 13 | > 100 | > 100
6 | [(DIC)2Pt(η^2-(E)-1,2-ditosylethene)] [Compound 3a] | low solubility |  |  |  | 
7 | [(P(2-furyl)3)2Pt(η^2-(E)-1,2-ditosylethene)] [Compound 2c] |  | 17.2 ± 0.8 | > 100 | > 100 | > 100
8 | [(PPh3)(DIC)Pt(η^2-(E)-1,2-ditosylethene)] [Compound 4a] |  | 35 ± 3 | 1.8 ± 0.6 | > 100 | 59 ± 8
9 | [(P(p-F-Ph)3)(TosMIC)Pt(η^2-(E)-1,2-ditosylethene)] [Compound 4d] |  | > 100 | 0.4 ± 0.1 | > 100 | 14 ± 1
10 | [(P(p-F-Ph)3)(CyIC)Pt(η^2-(E)-1,2-ditosylethene)] [Compound 4h] |  | 41 ± 10 | 37 ± 13 | > 100 | > 100
11 | [(TIC)2Pt(η^2-(E)-1,2-ditosylethene)] [Compound 3c] |  | 2.6 ± 0.3 | 3.4 ± 0.4 | 3.1 ± 0.9 | 3.5 ± 0.1
12 | [(CyIC)2Pt(η^2-(E)-1,2-ditosylethene)] [Compound 3d] |  | 1.18 ± 0.09 | 1.2 ± 0.3 | 1.4 ± 0.2 | 
13 | [(P(p-F-Ph)3)2Pt(η^2-(E)-1,2-ditosylethene)] [Compound 2b] |  | > 100 | 36 ± 6 | > 100 | > 100
14 | [(TolCH2ImCH2Tol)2Pt(η^2-(E)-1,2-ditosylethene)] [Compound 6a] |  | 1.6 ± 0.1 | 36 ± 11 | 10 ± 3 | > 100
15 | [(PPh3)(TosMIC)Pt(η^2-(E)-1,2-ditosylethene)] [Compound 4c] |  | 55 ± 17 | 1 ± 0.8 | > 100 | 15 ± 3
16 | [(CH3ImCH2Ph)2Pt(η^2-(E)-1,2-ditosylethene)] [Compound 6b] |  | 1.9 ± 0.3 | 5.4 ± 0.9 | 12.91 ± 0.06 | 61 ± 13
17 | [(P(p-F-Ph)3)(TIC)Pt(η^2-(E)-1,2-ditosylethene)] [Compound 4f] |  | > 100 | 21 ± 2 | > 100 | > 100
18 | N.N.[Cl][Pt][Cl] [Cisplatin, reference compound] |  | 0.19 ± 0.08 | 6.4 ± 0.5 | 5.4 ± 0.1 | 2.9 ± 0.1
